# ChEMBL document CHEMBL5465560, “Selectivity Literature for EUbOPEN Chemogenomic Library” (2024)
# Key:
# [1] = molecular target: Mitogen-activated protein kinase 9 (Homo sapiens, UniProt P45984); assay: Selectivity interaction (Kinase panel (enzymatic assay)) EUB0000595a MAPK9
# [2] = molecular target: Rho-associated protein kinase 1 (Homo sapiens) (UniProt Q13464); assay: Selectivity interaction (KinomeScan (DiscoverX)) EUB0000045b ROCK1
# [3] = molecular target: Mitogen-activated protein kinase 1 (Homo sapiens, UniProt P28482); assay: Selectivity interaction (KinomeScan (DiscoverX)) EUB0001079a MAPK1; conditions: at 1 µM
# [4] = molecular target: T1, Inhibitor of nuclear factor kappa-B kinase subunit epsilon (Homo sapiens) (UniProt Q14164); assay: Selectivity interaction (KinomeScan (DiscoverX)) EUB0000666a IKBKE; conditions: at 10 µM
# T1 sequence (whole entry): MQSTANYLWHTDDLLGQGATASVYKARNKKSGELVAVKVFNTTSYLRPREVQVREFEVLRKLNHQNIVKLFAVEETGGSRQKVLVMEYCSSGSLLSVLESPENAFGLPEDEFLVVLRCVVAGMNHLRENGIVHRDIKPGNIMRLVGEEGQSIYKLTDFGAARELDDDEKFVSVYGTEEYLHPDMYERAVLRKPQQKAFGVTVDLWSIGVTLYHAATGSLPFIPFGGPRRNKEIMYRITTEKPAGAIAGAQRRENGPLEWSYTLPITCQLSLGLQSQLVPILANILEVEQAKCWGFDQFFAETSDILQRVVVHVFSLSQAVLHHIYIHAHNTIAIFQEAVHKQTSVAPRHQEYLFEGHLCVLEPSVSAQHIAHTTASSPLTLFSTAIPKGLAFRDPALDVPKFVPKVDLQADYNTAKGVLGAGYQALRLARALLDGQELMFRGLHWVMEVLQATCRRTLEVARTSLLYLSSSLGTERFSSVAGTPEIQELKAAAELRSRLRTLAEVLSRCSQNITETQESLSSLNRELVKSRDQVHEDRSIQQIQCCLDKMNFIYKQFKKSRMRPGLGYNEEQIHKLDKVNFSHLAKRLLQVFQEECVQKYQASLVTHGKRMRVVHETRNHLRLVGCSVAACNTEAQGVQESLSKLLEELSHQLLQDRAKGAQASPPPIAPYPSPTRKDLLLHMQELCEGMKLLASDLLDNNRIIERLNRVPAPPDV
# hERG (KCNH2) = hERG (KCNH2) (Homo sapiens, UniProt Q12809); assay: Selectivity interaction (Eurofins CEREP Diversity Profile (receptors and ion channels)) EUB0000279b KCNH2; conditions: at 10 µM, read-out: % of control
# [5] = molecular target: Homeodomain-interacting protein kinase 4 (Homo sapiens, UniProt Q8NE63); assay: Selectivity interaction (Enzymatic assay (Eurofins)) EUB0001049a HIPK4
# [6] = molecular target: Protein-tyrosine kinase 2-beta (Homo sapiens) (UniProt Q14289); assay: Selectivity interaction (Upstate Kinase Profiler service (Millipore)) EUB0000056c PTK2B; conditions: at 1 µM
# [7] = molecular target: Mast/stem cell growth factor receptor Kit (Homo sapiens, UniProt P10721); assay: Selectivity interaction (Kinase panel (33PanQinase(R) Activity Assay)) EUB0000877a KIT
# [8] = molecular target: Casein kinase I isoform epsilon (Homo sapiens, UniProt P49674); assay: Selectivity interaction (ProQinase) EUB0000171b CSNK1E
# [9] = molecular target: ALK tyrosine kinase receptor (Homo sapiens, UniProt Q9UM73); assay: Selectivity interaction (ProQinase) EUB0000171b ALK; conditions: at 5 µM
# [10] = molecular target: Tyrosine-protein kinase Srms (Homo sapiens) (UniProt Q9H3Y6); assay: Selectivity interaction (Kinase panel (Eurofins)) EUB0001564a SRMS; conditions: at 1 µM
# [11] = molecular target: Macrophage colony-stimulating factor 1 receptor (Homo sapiens) (UniProt P07333); assay: Selectivity interaction (KinomeScan (DiscoverX)) EUB0001619a CSF1R; conditions: at 1 µM
# [12] = molecular target: MAP/microtubule affinity-regulating kinase 3 (Homo sapiens) (UniProt P27448); assay: Selectivity interaction (ActivX KiNativ screen (kinase selectivity in THP-1 cell lysates)) EUB0000639a MARK3; format: subcellular; conditions: lysate, at 0.04 µM
# [13] = molecular target: T2, SNF-related serine/threonine-protein kinase (Homo sapiens) (UniProt Q9NRH2); assay: Selectivity interaction (ActivX KiNativ screen (kinase selectivity in THP-1 cell lysates)) EUB0000639a SNRK; format: subcellular; conditions: lysate, at 0.04 µM
# T2 sequence (whole entry): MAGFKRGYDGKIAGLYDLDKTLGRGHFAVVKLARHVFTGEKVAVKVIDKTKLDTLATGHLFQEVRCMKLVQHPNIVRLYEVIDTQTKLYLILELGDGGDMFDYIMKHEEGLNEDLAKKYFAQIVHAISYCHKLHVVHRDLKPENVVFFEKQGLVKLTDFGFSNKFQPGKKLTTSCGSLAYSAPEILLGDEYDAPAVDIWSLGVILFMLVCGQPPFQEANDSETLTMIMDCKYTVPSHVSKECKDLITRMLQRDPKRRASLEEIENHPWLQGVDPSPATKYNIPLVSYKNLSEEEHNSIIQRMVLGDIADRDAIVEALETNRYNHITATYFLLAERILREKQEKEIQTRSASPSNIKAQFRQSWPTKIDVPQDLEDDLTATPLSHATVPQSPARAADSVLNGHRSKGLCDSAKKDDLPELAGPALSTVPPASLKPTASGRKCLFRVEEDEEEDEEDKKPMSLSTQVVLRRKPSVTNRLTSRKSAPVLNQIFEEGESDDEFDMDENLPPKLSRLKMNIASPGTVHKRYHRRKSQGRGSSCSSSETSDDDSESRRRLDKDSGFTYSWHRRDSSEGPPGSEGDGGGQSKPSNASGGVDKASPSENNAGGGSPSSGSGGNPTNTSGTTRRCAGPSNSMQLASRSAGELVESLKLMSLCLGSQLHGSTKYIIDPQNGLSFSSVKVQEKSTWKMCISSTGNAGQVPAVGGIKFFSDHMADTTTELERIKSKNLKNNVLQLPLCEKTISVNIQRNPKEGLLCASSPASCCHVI
# [14] = molecular target: Epidermal growth factor receptor (Homo sapiens, UniProt P00533); assay: (§1) Selectivity interaction (KinomeScan (DiscoverX)) EUB0000092b EGFR; conditions: at 10 µM
# [15] = tested on: Epidermal growth factor receptor (Homo sapiens), P00533 [L858R]; assay: as §1; conditions: at 10 µM
# [16] = tested on: Epidermal growth factor receptor (Homo sapiens), P00533 [L858R,T790M]; assay: as §1; conditions: at 10 µM
# [17] = tested on: Epidermal growth factor receptor (Homo sapiens), P00533 [T790M]; assay: as §1; conditions: at 10 µM
# [18] = tested on: Epidermal growth factor receptor (Homo sapiens), P00533 [UNDEFINED MUTATION]; assay: as §1; conditions: at 10 µM
# Rho-associated protein kinase 1 (Homo sapiens), sequence (Q13464 2-1354 limits assumed): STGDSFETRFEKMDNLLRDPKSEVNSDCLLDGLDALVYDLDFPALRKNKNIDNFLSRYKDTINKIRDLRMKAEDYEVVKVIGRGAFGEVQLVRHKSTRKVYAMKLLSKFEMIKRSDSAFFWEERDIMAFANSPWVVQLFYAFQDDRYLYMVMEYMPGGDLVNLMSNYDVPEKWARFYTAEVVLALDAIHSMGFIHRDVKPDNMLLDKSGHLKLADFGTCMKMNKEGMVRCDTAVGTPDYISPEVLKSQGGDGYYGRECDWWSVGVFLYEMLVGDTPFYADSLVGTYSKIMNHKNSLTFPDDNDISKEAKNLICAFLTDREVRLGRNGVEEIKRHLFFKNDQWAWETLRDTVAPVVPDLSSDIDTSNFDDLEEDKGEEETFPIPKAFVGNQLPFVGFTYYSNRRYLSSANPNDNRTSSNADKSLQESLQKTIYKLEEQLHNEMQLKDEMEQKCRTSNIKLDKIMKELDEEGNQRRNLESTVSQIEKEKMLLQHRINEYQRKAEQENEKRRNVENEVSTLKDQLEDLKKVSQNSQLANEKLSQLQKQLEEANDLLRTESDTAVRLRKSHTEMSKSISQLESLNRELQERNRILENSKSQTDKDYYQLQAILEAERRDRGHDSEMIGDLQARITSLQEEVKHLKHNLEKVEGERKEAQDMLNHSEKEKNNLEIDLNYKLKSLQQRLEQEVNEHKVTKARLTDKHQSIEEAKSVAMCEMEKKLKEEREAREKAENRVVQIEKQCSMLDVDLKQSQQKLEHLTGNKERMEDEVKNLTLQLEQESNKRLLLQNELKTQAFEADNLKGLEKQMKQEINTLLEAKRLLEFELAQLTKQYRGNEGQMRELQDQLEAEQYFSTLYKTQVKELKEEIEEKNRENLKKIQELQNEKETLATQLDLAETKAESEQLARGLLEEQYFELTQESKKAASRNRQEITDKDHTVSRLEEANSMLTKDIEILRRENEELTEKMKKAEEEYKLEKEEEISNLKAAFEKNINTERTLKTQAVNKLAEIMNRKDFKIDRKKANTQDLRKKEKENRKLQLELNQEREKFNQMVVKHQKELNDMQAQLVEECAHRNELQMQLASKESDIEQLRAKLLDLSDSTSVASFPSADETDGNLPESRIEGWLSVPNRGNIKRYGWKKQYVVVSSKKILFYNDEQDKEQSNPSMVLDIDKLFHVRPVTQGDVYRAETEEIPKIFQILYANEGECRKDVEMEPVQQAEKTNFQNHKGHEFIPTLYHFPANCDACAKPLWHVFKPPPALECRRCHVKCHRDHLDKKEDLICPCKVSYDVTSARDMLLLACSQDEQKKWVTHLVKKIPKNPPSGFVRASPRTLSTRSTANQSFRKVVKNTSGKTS
# Casein kinase I isoform epsilon, sequence (P49674 whole entry, looked up, canonical isoform): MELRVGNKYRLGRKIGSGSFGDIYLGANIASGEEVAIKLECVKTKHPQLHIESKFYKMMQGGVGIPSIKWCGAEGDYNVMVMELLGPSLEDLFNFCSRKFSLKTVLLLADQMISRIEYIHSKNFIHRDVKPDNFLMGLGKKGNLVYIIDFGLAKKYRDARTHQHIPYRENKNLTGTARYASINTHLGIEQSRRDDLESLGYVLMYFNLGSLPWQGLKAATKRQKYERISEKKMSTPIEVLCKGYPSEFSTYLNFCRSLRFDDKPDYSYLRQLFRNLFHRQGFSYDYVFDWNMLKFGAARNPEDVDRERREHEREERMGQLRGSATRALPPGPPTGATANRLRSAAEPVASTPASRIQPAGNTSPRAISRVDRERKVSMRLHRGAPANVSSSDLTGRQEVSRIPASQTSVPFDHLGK
# Mitogen-activated protein kinase 1, sequence (P28482 whole entry): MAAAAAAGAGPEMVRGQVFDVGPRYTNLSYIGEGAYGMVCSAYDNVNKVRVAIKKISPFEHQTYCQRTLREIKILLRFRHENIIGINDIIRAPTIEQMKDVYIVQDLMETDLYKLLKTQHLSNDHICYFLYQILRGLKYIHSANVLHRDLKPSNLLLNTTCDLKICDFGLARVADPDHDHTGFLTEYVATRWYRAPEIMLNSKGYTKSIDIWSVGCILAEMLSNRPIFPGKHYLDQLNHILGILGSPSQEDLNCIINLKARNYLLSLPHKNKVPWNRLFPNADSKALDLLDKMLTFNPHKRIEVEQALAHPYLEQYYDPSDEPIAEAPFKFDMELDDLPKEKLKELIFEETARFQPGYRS
# Mast/stem cell growth factor receptor Kit, sequence (P10721 whole entry, canonical isoform): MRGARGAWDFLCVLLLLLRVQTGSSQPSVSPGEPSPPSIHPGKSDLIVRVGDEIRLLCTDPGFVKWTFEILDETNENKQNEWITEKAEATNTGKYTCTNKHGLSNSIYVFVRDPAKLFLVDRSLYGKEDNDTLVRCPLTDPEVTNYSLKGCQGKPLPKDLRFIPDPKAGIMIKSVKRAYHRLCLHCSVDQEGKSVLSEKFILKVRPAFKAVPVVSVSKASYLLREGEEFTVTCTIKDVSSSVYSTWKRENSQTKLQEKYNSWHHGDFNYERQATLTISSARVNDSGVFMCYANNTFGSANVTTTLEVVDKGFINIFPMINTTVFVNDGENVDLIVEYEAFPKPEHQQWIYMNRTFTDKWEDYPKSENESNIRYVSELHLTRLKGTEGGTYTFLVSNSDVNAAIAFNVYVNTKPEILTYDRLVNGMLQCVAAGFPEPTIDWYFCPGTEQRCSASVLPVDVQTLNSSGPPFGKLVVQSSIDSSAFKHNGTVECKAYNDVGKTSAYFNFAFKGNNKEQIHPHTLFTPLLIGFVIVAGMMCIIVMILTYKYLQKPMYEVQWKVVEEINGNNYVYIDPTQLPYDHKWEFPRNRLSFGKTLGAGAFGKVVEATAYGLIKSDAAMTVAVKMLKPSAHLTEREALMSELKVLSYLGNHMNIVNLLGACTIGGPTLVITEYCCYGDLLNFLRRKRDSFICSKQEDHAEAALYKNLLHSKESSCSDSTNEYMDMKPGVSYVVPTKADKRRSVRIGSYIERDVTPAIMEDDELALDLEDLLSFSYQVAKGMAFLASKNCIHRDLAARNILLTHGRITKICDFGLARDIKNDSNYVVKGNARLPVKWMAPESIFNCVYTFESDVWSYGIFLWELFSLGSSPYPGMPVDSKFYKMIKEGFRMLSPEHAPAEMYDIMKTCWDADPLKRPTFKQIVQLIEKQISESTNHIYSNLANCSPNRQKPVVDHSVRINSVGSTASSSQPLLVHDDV
# Protein-tyrosine kinase 2-beta (Homo sapiens), sequence (Q14289 whole entry, looked up): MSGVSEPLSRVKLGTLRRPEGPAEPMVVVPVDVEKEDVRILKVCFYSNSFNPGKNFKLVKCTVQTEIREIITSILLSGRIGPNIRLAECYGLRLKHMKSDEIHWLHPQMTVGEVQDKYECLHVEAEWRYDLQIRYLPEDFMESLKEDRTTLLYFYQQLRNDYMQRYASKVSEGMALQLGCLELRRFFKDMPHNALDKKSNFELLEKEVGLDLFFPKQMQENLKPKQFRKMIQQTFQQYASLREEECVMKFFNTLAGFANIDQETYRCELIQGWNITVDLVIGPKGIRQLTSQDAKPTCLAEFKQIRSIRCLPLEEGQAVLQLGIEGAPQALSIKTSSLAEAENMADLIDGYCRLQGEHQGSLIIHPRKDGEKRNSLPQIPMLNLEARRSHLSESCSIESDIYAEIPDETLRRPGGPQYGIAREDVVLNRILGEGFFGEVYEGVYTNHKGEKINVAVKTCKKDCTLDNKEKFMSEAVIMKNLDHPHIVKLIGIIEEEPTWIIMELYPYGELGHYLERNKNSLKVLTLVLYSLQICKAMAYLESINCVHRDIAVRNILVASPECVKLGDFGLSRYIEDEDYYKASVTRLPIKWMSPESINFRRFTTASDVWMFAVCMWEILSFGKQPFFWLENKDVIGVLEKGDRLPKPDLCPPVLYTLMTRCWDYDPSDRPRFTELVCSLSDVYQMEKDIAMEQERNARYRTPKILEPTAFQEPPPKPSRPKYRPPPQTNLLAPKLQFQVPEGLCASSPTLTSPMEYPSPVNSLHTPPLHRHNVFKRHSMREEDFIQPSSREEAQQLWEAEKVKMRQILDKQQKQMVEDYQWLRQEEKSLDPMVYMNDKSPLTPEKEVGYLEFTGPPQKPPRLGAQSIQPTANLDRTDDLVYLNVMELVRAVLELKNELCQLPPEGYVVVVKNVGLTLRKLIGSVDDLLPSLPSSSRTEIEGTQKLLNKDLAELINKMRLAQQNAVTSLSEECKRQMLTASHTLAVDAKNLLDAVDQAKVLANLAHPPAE
# Mitogen-activated protein kinase 9, sequence (P45984 whole entry): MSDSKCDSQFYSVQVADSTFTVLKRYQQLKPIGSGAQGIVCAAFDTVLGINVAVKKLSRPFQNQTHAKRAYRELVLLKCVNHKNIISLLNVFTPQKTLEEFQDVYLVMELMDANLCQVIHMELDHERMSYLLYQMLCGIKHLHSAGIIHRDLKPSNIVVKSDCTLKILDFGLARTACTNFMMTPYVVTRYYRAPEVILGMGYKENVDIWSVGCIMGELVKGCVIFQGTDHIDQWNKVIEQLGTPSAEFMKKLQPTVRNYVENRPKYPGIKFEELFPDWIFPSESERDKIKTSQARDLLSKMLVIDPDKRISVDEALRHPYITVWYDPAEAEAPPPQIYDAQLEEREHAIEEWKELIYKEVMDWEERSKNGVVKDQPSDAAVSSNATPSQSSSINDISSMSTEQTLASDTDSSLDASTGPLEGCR
# Tyrosine-protein kinase Srms (Homo sapiens), sequence (Q9H3Y6 whole entry): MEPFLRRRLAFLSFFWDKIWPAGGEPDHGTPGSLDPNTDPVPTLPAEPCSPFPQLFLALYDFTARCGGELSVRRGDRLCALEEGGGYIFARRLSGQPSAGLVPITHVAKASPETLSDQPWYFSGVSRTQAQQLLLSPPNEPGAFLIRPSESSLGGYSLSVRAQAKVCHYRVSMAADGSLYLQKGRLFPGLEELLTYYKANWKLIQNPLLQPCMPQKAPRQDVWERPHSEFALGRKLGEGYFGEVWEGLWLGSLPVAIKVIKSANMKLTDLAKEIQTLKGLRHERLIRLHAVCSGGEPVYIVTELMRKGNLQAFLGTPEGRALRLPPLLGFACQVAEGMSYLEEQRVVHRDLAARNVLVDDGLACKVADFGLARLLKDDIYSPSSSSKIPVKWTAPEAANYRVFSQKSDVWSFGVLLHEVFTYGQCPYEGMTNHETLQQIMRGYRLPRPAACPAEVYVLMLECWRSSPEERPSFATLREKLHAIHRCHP
compound,measurement,setting,value
COCC(=O)NC/C=C/c1ccc2ncnc(Nc3ccc(Oc4ccc(C)nc4)c(C)c3)c2c1 [CP-724714],IC50,[1],> 10 µM
C=CC(=O)Nc1cc(-n2c(=O)ccc3cnc4ccc(-c5ccc(NS(C)(=O)=O)cc5)cc4c32)ccc1C,% of control,[2]; at 1 µM,56%
same,% of control,[2]; at 10 µM,59%
Nc1cnc(N2CCc3cc(S(=O)(=O)Nc4c(F)cc(Cl)cc4F)cc(N4CCCC4=O)c32)nc1 [TP-020n],% of control,[3],100%
O=C(NOC[C@H](O)CO)c1ccc(F)c(F)c1Nc1ccc(I)cc1F,% of control,[4],100%
CC(=O)c1cc(-c2ccccc2OCC2CC2)c2ncccn12,activity,hERG (KCNH2),111%
COc1cc(Nc2nc(C)cc(-c3cnn4nc(OC)ccc34)n2)cc(C(F)(F)F)c1,IC50,[5],> 10 µM
Cc1ccc(-c2ccc3c(ccc4sc5c(c43)NC[C@@H](C)NC5=O)n2)cn1,% of inhibition,[6],12%
CCC(=O)N1CC[C@H](Nc2ncnc3c2CN(c2cnc(OC)c(C(F)(F)F)c2)CC3)C1 [LENIOLISIB],IC50,[7],> 10 µM
C=CC(=O)Nc1cccc(C(=O)Nc2ccc(Nc3cc(-c4[nH]c(SC)nc4C)ccn3)cc2)c1,% of control,[8]; at 1 µM,57%
same,% of control,[8]; at 5 µM,21%
same,% of control,[9],96%
CC[C@@H](Nc1c(C#N)c(-c2ccc(-c3cccc(C)c3F)cc2)nc2cnccc12)C(=O)O [BAY-091],% of inhibition,[10],26.3%
N#Cc1cccc(-c2c[nH]c3ncnc(N4CCOCC4)c23)c1,% of control,[11],87%
CC[C@@H]1[C@H](F)C(=O)N[C@@H]1COc1nccc2cc(C(N)=O)c(OC)cc12 [ZIMLOVISERTIB],% of inhibition,[12],-13.3%
same,% of inhibition,[13],9.5%
CCC(=O)N1CCN(c2ccc(-n3c(=O)ccc4cnc5ccc(-c6cnc7ccccc7c6)cc5c43)cc2C(F)(F)F)CC1,% of control,[14],85%
same,% of control,[15],100%
same,% of control,[16],100%
same,% of control,[17],100%
same,% of control,[18],100%
